Measurements from patent US20210254101A1, “METHODS FOR TREATING SPINAL CORD INJURY” (THE CHILDREN'S MEDICAL CENTER CORPORATION, priority 2018, published 2021).

Legend:
[1] = system: mice with staggered lesions; experiment: Basso Mouse Scale (BMS) open field locomotion after staggered T7/T10 lateral hemisections; type: in vivo; details: for stepping ability / functional recovery (BMS), chronic compound treatment: daily i.p. treatment from 1 week after injury, BMS about 24 h after previous dose, FIG. 1E, 7A
Procedure: A staggered lesion paradigm was optimized in which two lateral hemisections were performed at the thoracic (T) 7 and T10 levels simultaneously (FIGS. 1A and 1B), similar to the model previously described (Courtine 2008; van den Brand, 2012). The T10 lesion is a lateral hemisection that ends at the spinal cord midline, while the T7 lesion, contralateral to the T10 lesion, extends slightly beyond the midline (FIG. 1A). With this double hemisection procedure, all descending axons passing T10 are severed, leaving only those crossing the midline between T7 and T10 intact (FIG. 1C). Indeed, by immunohistochemistry with anti-5-HT antibodies, which label serotonergic axons, descending serotonergic axons could be detected in the spinal cord segments between the lesions, but not in the lumbar spinal cord (FIG. 1C). Thus, a relay zone remains between and around the lesions (T7 and T10) where descending axons terminate, and where some propriospinal neurons maintain their connections with lumbar spinal neurons (see herein below).
This double hemisection SCI model was used to seek small molecule compounds that could reactivate the spared, but dormant, spinal connections by monitoring hindlimb motor performance during over-ground locomotion. To this end, daily compound treatment was started 1 week after injury and then monitored the BMS scores approximately 24 hours after the previous day's compound treatment on a weekly basis (FIG. 1D). Behavioral outcomes observed at these time points likely reflect sustained effects of the treatment, which are more clinically relevant.
Surgical Procedures. The procedure of T7 and T10 double lateral hemisection was similar to that described elsewhere (Courtine et al., 2008; van den Brand et al., 2012). Briefly, a midline incision was made over the thoracic vertebrae, followed by a T7-10 laminectomy. For the T7 right side over-hemisection, a scalpel and micro-scissors were carefully used to interrupt the bilateral dorsal column at T7, and ensured no sparing of ventral pathways on the contralateral side (FIG. 1A). For the T10 left hemisection, a scalpel and micro-scissors were carefully used to interrupt only the left side of the spinal cord until the midline. The muscle layers were then sutured, and the skin was secured with wound clips. All animals received post hoc histological analysis, and those with spared 5HT axons at the lumbar spinal cord (L2-5) were excluded for behavioral analysis (FIG. 7).
(§1) Behavioral Experiments. Motor function was evaluated with a locomotor open field rating scale on the Basso Mouse Scale (BMS). For transient pharmacological treatments, ten to fifteen minutes (van den Brand et al., 2012) prior to behavioral tests (grounding walking, all of which were performed individually), mice received systematic administration (i.p.) of the neural modulators listed above. It is important to note that with a single intraperitoneal injection, plasma CNO levels peak at 15 min and become very low by 2 h after injection (Guettier et al., 2009). For chronic pharmacological treatments, 24 hours prior to behavioral tests, mice received systematic administration of the compounds listed above. All behavioral tests were completed within 1-3 hours. For detailed hindlimb kinematic analysis, mice from different groups were placed in the MotoRater (TSE Systems, (Zorner et al., 2010)), and all kinematic analysis was performed based on data collected by the MotoRater.

[2] = Guettier et al., 2009, cited from earlier work
c-Fos = c-Fos immunoreactivity in spinal cord segments between T7 and T10 after 1 hour walking; type: in vivo, mouse; details: chronic treatment
Text: In mature neurons, GABA and glycine are inhibitory because they open chloride channels, which allow chloride ion influx leading to hyperpolarization. In contrast, during development, the elevated intracellular chloride levels render GABAA- and glycine-mediated currents depolarizing and generally excitatory. During early postnatal life, KCC2 upregulation in postnatal neurons is crucial for reducing intracellular chloride concentrations, transforming excitation into inhibition (Ben-Ari et al., 2012; Kaila et al., 2014). Thus, injury-induced KCC2 down-regulation (Boulenguez et al., 2010; Cote et al., 2014) would be expected to restore an immature state in which GABA and glycine receptors can depolarize neurons. In this scenario, KCC2 activation in spinal inhibitory neurons would transform local circuits in the relay zone towards a more physiological state, which is more receptive to descending inputs. To examine this, c-Fos immunoreactivity was used as a proxy of neuronal activity in the spinal cord segments between T7 and T10 at 8 weeks after injury, and after walking on a treadmill for 1 hour. In each group, the majority of c-Fos-positive cells in these spinal segments were also positively stained with NeuN, a neuronal marker (FIG. 11A, 11B). In injured mice without treatment, the c-Fos-positive neurons were concentrated in the dorsal horn of the spinal cord (FIG. 5A-5C), perhaps reflecting hypersensitivity to peripheral sensory inputs in these injured mice. […] This KCC2-transformed distribution pattern is similar to what was detected in intact mice, in response to walking (FIG. 5A-5C).
Immunohistochemistry and Imaging. The paraformaldehyde (PFA) fixed tissues were cryo-protected with 30% sucrose and processed using cryostat (section thickness 40 μm for spinal cord). Sections were treated with a blocking solution containing 10% normal donkey serum with 0.5% Triton-100 for 2 hours at room temperature before staining. The primary antibodies (4 □, overnight) used were: rabbit anti-GFAP [DAKO (Z0334), 1:600]; rabbit anti-5-HT [Immunostar (20080), 1:5,000]; chicken anti-GFP [Abcam (ab13970), 1:400]; rabbit anti-RFP [Abcam (ab34771), 1:400]; rabbit anti-PKCγ [Santa Cruz (sc211), 1:100]; rat anti-HA [Sigma (11867423001), 1:200]; rabbit anti-c-Fos [Cell signaling (2250s), 1:100]; and mouse anti-NeuN [Millipore (MAB377), 1:400]. Secondary antibodies (room temperature, 2 h) included: Alexa Fluor 488-conjugated donkey anti chicken and rabbit; and Alexa Fluor 594-conjugated donkey anti rabbit (all from Invitrogen). c-Fos immunoreactivity of spinal neurons was determined as previously described (Courtine et al., 2009), after 1-hour of continuous quadrupedal free walking (intact), stepping (CLP290 or AAV-KCC2 treated mice) or dragging (vehicle or AAV-GFP treated mice). The mice were returned to their cages, and were then anesthetized and sacrificed by intracardial perfusion of 4% PFA (wt/vol) in phosphate buffered saline (PBS) about 2 hours later.

neuropathic pain = details: animal models; Gagnon et al., 2013; Ferrini et al., 2017; Knabl et al., 2008; cited from earlier work
[3] = system: mice with a complete T8 spinal cord transection; experiment: BMS open field locomotion after complete T8 spinal cord transection; type: in vivo, mouse; details: T8 complete transection, FIG. 7F
Text: CLP290's effects could result from reactivating the spared dormant descending connections in the spinal cord after SCI. However, it could also act directly on the lumbar spinal cord, independently of descending inputs. […] Therefore, different from this transient effector that acts directly on the lumbar spinal cord, the effects of CLP290 on functional improvement are dependent on spared connections.
The procedure of T8 full transection was similar to that described elsewhere (Courtine et al., 2009). Briefly, a midline incision was made over the thoracic vertebrae, followed by a T8 laminectomy. The complete T8 transection was then performed carefully using both a scalpel and micro-scissors. The muscle layers were then sutured and the skin was secured with wound clips.
as §1

[4] = T8/9, 8 weeks after injury, FIG. 5A-5C

CCCCNc1cc(C(=O)O)cc(S(N)(=O)=O)c1Oc1ccccc1 [Bumetanide]
stepping ability / functional recovery (BMS), chronic compound treatment [1]: some effects, but without statistical significance

C[N+]1([O-])CCN(C2=Nc3cc(Cl)ccc3Nc3ccccc32)CC1 [CNO, Clozapine N-oxide]
plasma CNO levels ([2]; by 2 h after single intraperitoneal injection): very low
time of peak plasma CNO levels ([2]; single intraperitoneal injection): 15 min

Cn1ncnc1COc1nn2c(-c3cc(F)ccc3F)nnc2cc1C(C)(C)C [L838,417]
stepping ability / functional recovery (BMS), chronic compound treatment [1]: failed to promote functional motor recovery
c-Fos-positive neurons in the dorsal horn (laminae I-V) (c-Fos; [4]): reduced c-Fos-positive neurons in dorsal horn
c-Fos-positive neurons in the intermediate/ventral spinal cord (c-Fos; [4]): without increasing those in intermediate zones and ventral region
neuronal activation levels across spinal cord regions (c-Fos; staggered injured mice): reduced neuronal activation levels in all spinal cord regions
effect on neuropathic pain (neuropathic pain): reduce neuropathic pain

c1ccc2nc(N3CCNCC3)ccc2c1 [quipazine]
BMS improvement measured acutely after compound administration ([1]; staggered lesion, 8 weeks after SCI, FIG. 7B): rapid, but transient, BMS improvement
duration of acute BMS improvement / locomotion after administration ([1]; staggered lesion, FIG. 7B): less than 2 hours
start of acute BMS improvement after administration ([1]; staggered lesion, FIG. 7B): 10 min
BMS improvement measured acutely after compound administration ([3]; 8 weeks, no chronic treatment): rapid, but transient, BMS improvement
duration of acute BMS improvement / locomotion after administration [3]: less than 2 hours
start of acute BMS improvement after administration [3]: 10 min
